Consider six compounds from ChEMBL document CHEMBL2021893, “Synthesis, structure-activity relationship and in vitro anti-mycobacterial evaluation of 13-n-octylberberine derivatives” (2012).

What all share (type): functional
Test [1] deals with Mycobacterium tuberculosis. In words: Antimycobacterial activity against multidrug-resistant Mycobacterium tuberculosis isolate 44 from Chinese tuberculosis patient measured 24 hrs post dose by microplate alamar blue assay. Particulars: isolate 44, 24 h. A general note: The colour change of resazurin is a common sign of viable cells or microbes.
Test [2] relates to Mycobacterium tuberculosis. Put plainly: Antimycobacterial activity against multidrug-resistant Mycobacterium tuberculosis isolate 83 from Chinese tuberculosis patient measured 24 hrs post dose by microplate alamar blue assay. The following applies: isolate 83, 24 h.
The test system of test [3] is Mycobacterium tuberculosis. In words: Antimycobacterial activity against multidrug-resistant Mycobacterium tuberculosis isolate 164 from Chinese tuberculosis patient measured 24 hrs post dose by microplate alamar blue assay. The following applies: isolate 164, 24 h.
In test [4] the test system is Mycobacterium tuberculosis. Put plainly: Antimycobacterial activity against multidrug-resistant Mycobacterium tuberculosis isolate 431 from Chinese tuberculosis patient measured 24 hrs post dose by microplate alamar blue assay. Particulars: isolate 431, 24 h.
The test system of test [5] is Mycobacterium tuberculosis. In words: Antimycobacterial activity against multidrug-resistant Mycobacterium tuberculosis isolate 926 from Chinese tuberculosis patient measured 24 hrs post dose by microplate alamar blue assay. The following applies: isolate 926, 24 h.

Each structure is given as a SMILES string. Converted amounts (≈) assume the structure as drawn. Where only a bound is given, the exact number is not on record here.

The MIC is the lowest concentration found to suppress growth. Read a low MIC as a more susceptible organism. Regarding `CCCCCCCCc1c2[n+](cc3c(OC)c(OC)ccc13)CCc1cc3c(cc1-2)OCO3.[Cl-]`, the MIC in test [1], in test [2], in test [3] and in test [4] was 4 µg/mL in each case.
On to `CCCCCCCCc1c2[n+](cc3c(OC)c(OC)ccc13)CCc1cc(OCC)c(OCC)cc1-2.[Cl-]`, for which the MIC in test [1], in test [2], in test [3] and in test [5] was 4 µg/mL throughout.
Consider `CCCCCCCCc1c2[n+](cc3c(OCc4ccccc4)c(OC)ccc13)CCc1cc(OCc3ccccc3)c(O)cc1-2.[Cl-]`, for which the MIC in test [1] amounted to 0.5 µg/mL; in test [2] it was 1 µg/mL; in test [3] it was 1 µg/mL; in test [4] it was 0.25 µg/mL; in test [5] it was 0.5 µg/mL.
Turning to `CCCCCCCCc1c2[n+](cc3c(OCC)c(OC)ccc13)CCc1cc(OCC)c(OCC)cc1-2.[Cl-]`, the MIC came to 0.25 µg/mL in test [1]; 0.5 µg/mL in test [2]; 0.125 µg/mL in test [3]; 0.5 µg/mL in test [4]; 0.125 µg/mL in test [5].
`NNC(=O)c1ccncc1` [ISONIAZID]: the MIC in test [1] was found to be 4 µg/mL (≈ 29.2 µM); in test [2], 4 µg/mL (≈ 29.2 µM); in test [3] it was 4 µg/mL (≈ 29.2 µM); in test [4] it was 64 µg/mL (≈ 467 µM); in test [5], 32 µg/mL (≈ 233 µM).
Regarding `CO[C@H]1/C=C/O[C@@]2(C)Oc3c(C)c(O)c4c(O)c(c(/C=N/N5CCN(C)CC5)c(O)c4c3C2=O)NC(=O)/C(C)=C\C=C\[C@H](C)[C@H](O)[C@@H](C)[C@@H](O)[C@@H](C)[C@H](OC(C)=O)[C@@H]1C` [RIFAMPIN], the MIC in test [1] is 64 µg/mL (≈ 77.8 µM); in test [2], > 64 µg/mL; in test [3] it was > 64 µg/mL; in test [4], > 64 µg/mL; in test [5], > 32 µg/mL.
